In paper PMC4597782 (Nature, 2015):
Each block holds one compound with its values, some of them ahead of it.

Assays:
mGluR3 [1] = target: T1, mGluR3 (Rattus norvegicus, UniProt P31422); format: biochemical; conditions: for average active state lifetime: 2 mM Ca2+ or 100 nM glutamate
mGluR2 [2] = target: T2, mGluR2 (Rattus norvegicus, UniProt P31421); format: biochemical
mGluR2 [3] = target: T2, mGluR2; format: cell-based; conditions: normalized to response to 1 mM glutamate
mGluR3 [4] = target: T1, mGluR3; format: cell-based; conditions: read-out: EC50 of glutamate-dependent decrease in ensemble FRET; HEK293T cells
[5] = target: mGluR2 WT/YADA heterodimer (Rattus norvegicus, UniProt P31421, D295A/Y216A); experiment: smFRET of mGluR2 WT/YADA heterodimers; format: biochemical; conditions: near-saturating glutamate for the WT subunit
[6] = target: mGluR2-YADA (Y216A and D295A) (Rattus norvegicus, UniProt P31421, D295A/Y216A); experiment: smFRET of glutamate-insensitive mutant mGluR2-YADA; format: biochemical; conditions: 50 μM or 1 mM glutamate
Chain of mGluR2-YADA (Y216A and D295A) (P31421 19-872 Y216A/D295A): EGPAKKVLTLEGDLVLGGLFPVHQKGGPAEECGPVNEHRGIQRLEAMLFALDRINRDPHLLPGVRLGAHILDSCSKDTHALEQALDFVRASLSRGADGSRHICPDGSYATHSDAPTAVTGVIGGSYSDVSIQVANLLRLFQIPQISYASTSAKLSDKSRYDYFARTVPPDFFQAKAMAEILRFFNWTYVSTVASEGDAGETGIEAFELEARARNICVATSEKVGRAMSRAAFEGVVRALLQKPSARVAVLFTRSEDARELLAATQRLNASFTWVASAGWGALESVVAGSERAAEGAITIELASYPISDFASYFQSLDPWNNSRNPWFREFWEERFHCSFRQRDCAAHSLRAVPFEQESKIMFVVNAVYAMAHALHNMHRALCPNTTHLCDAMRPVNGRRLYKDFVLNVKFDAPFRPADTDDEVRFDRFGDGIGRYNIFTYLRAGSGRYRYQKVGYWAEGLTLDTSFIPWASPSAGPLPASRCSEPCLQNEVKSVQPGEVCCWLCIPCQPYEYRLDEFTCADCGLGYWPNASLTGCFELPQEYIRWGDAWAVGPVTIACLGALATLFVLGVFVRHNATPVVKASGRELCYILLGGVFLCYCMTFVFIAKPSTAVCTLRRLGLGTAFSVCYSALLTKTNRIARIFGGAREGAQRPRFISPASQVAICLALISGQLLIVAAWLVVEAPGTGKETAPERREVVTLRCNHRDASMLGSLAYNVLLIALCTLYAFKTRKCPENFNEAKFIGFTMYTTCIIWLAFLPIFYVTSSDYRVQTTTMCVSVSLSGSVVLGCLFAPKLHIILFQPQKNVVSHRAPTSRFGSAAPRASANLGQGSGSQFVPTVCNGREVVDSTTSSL
Chain of mGluR2-YADA (Y216A and D295A) (P31421 19-872 Y216A/D295A): as above

T1 sequence (P31422 23-879): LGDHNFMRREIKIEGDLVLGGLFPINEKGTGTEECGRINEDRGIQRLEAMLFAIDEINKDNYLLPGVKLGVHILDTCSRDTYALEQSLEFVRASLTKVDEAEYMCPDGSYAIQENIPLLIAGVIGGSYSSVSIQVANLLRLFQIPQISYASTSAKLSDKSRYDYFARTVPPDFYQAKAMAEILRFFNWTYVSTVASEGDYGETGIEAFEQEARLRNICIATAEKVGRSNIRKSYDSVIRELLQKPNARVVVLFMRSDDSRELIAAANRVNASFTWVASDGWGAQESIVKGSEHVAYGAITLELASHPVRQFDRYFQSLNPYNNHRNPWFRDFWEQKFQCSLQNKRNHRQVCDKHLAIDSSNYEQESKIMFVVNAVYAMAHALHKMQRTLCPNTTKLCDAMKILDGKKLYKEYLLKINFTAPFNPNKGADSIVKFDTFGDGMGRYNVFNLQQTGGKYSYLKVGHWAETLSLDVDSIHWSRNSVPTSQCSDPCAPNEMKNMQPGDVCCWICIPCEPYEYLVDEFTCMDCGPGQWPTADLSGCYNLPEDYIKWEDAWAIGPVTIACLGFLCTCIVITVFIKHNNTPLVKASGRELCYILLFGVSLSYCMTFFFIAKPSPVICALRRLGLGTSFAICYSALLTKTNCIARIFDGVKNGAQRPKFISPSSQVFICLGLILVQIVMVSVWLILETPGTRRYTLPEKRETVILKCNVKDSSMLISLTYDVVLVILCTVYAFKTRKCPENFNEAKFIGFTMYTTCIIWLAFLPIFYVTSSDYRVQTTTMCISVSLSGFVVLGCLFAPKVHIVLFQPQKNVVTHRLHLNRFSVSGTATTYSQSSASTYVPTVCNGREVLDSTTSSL
T1 sequence (P31422 23-879): as above
T2 sequence (P31421 19-872): as the sequence (P31421 19-872 Y216A/D295A) above, with A198Y, A277D counted along it
T2 sequence (P31421 19-872): as the sequence (P31421 19-872 Y216A/D295A) above, with A198Y, A277D counted along it
Chain of mGluR2 WT/YADA heterodimer (P31421 19-872, stated change not applied): as the sequence (P31421 19-872 Y216A/D295A) above, with A198Y, A277D counted along it
Chain of mGluR2 WT/YADA heterodimer (P31421 19-872 Y216A/D295A): as the sequence (P31421 19-872 Y216A/D295A) above

average active state lifetime (mGluR3 [1]): 183 ms
SMILES: [Ca+2] [Ca^2+]
effect on low FRET state occupancy (mGluR3 [1]; 0 glutamate): concentration-dependent increase in low FRET state occupancy

share of distribution remaining in the high and medium FRET states (mGluR2 [2]; saturating concentrations (≥100 μM)): ~ 30%
SMILES: N[C@H](C(=O)O)C1[C@@H](C(=O)O)[C@@H]1C(=O)O (some centres unmarked) [DCG-IV]

SMILES: COc1ccccc1Oc1ccc(N(Cc2cccnc2)S(=O)(=O)CC(F)(F)F)cc1 [LY48739, LY487379]
effect on DCG-IV response in ensemble FRET (mGluR2 [3]): increases the apparent affinity and efficacy of DCG-IV
effect on relative occupancy of the low FRET state (mGluR2 [2]; in the presence of DCG-IV (1 μM)): increased the relative occupancy of the low FRET state

SMILES: N[C@@]1(C(=O)O)CO[C@H]2[C@H](C(=O)O)[C@H]21 [LY379268]
occupancy of the active (low FRET) state (mGluR2 [2]; saturating agonist, compared with glutamate): more complete occupancy of the active state than glutamate

EC50 (mGluR3 [4]): 500 ± 200 nM
average active state lifetime (mGluR3 [1]): 183 ms
occupancy of the medium FRET state [5]: ~ 55%
effect on the FRET histogram [6]: no effect
maximal medium FRET occupancy (mGluR2 [2]; WT/WT homodimer): ~ 25%
SMILES: N[C@@H](CCC(=O)O)C(=O)O [glutamate]
